Molecules are shown by their SMILES.

Sequence of human ACC2 (O00763 129-2458): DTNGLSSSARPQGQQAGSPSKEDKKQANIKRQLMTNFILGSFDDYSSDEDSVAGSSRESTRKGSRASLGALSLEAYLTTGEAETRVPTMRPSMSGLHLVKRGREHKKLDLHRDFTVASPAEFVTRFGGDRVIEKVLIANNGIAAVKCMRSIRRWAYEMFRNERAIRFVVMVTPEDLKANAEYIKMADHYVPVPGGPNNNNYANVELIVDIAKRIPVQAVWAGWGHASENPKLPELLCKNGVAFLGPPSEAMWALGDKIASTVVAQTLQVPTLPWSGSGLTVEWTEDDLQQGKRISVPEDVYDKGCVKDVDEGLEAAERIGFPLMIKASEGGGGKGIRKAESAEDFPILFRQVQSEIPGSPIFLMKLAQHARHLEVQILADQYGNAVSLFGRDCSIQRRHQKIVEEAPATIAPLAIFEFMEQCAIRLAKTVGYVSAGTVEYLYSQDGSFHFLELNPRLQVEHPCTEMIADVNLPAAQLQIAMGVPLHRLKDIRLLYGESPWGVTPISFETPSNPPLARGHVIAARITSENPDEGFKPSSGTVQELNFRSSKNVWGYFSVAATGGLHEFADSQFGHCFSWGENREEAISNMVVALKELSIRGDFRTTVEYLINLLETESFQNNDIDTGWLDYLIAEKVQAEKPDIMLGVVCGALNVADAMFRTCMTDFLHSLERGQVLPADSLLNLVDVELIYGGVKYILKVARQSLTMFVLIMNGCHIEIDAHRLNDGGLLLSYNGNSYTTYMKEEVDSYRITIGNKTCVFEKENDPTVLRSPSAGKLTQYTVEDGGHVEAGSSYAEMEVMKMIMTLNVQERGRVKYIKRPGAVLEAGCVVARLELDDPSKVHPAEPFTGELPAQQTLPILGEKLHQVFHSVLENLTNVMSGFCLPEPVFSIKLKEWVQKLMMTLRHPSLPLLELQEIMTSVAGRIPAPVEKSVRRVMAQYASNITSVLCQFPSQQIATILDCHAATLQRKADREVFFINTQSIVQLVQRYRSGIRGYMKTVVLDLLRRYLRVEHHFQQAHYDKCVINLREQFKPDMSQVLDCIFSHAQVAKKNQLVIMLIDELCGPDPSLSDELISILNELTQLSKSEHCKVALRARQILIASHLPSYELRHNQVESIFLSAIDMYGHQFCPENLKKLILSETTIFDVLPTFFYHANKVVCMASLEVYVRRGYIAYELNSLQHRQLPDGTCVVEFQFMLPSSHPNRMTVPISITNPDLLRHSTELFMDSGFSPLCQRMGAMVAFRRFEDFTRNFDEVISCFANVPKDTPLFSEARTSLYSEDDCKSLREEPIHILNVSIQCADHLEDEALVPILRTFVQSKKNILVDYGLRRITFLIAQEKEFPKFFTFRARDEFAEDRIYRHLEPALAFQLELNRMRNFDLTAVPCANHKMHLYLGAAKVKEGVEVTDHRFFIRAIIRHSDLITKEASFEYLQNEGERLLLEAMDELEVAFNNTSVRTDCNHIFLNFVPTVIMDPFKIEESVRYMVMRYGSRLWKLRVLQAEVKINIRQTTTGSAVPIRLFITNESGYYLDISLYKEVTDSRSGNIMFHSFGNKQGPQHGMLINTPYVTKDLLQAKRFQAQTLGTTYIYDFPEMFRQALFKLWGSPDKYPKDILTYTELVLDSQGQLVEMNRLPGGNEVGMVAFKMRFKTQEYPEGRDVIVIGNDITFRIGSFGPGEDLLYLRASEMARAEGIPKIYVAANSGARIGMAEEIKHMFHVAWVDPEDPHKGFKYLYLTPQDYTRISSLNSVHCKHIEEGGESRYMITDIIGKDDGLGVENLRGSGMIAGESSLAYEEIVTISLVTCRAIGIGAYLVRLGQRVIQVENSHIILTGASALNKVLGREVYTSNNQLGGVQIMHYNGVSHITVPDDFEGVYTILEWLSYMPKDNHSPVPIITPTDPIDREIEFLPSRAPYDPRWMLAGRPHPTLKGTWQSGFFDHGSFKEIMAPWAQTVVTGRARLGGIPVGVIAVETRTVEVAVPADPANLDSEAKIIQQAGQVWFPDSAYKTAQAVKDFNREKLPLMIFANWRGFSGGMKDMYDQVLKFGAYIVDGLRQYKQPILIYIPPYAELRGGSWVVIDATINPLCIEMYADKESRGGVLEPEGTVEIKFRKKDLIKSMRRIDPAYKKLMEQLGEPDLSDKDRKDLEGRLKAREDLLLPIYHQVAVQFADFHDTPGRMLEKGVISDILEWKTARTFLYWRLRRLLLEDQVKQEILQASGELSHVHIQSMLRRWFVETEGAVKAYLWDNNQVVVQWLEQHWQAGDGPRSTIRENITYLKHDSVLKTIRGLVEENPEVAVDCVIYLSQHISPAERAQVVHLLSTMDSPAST

The assay deals with human ACC2 (Homo sapiens (Human), UniProt O00763). Nature of the assay: ACC2 assay, spectrophotometric 384 well assay (NADH-linked kinetic method). Particulars: human ACC2 construct lacking the 128 N-terminal amino acids; coupled lactate dehydrogenase/pyruvate kinase reaction, 340 nm, 25° C. In kind it is biochemical. An outline of the steps:
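ADP formation was monitored as NADH consumption at 340 nm for 15 min at 25 °C, using baculovirus-expressed human ACC2 missing its first 128 amino acids, with 500 μM ATP and 2000 μM each of acetyl-CoA and NADH (final). IC50 was fitted by non-linear regression on low-control-subtracted slopes.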
In the case of `COCC(C)Oc1cc(N2CC[C@@H](Oc3ccc([C@H](C)NC(C)=O)cc3)C2)ccn1` (some centres unmarked) [Example 9.3], half-maximal inhibition (IC50) required 480 nM.

On to `CC(C)Oc1cc(N2CCC(Oc3ccc([C@H](C)NC(=O)c4ccno4)cc3)C2)ccn1` (some centres unmarked) [Example 2.10], for which the IC50 came out at 670 nM.

The compound `C[C@H](NC(=O)c1ccnc(F)c1)c1ccc(OC2CCN(c3cccc(C(F)(F)F)n3)C2)cc1` (some centres unmarked) [Example 2.54] showed an IC50 of 455 nM.

As for `CC(=O)N[C@@H](C)c1ccc(O[C@@H]2CCN(c3ccnc(OCC4CC4(F)F)c3C)C2)cc1` (some centres unmarked) [Example 9.60], the IC50 is 40 nM.

Turning to `CCN(CC)c1nccc(N2CC[C@@H](Oc3ccc([C@H](C)NC(C)=O)cc3)C2)c1F` [Example 10.19], inhibition was half-maximal at 35 nM (IC50).

Turning to `CC(C)Oc1cc(N2CCC(Oc3ccc([C@H](C)NC(=O)C(C)(F)F)cc3)C2)ccn1` (some centres unmarked) [Example 2.29], the IC50 is 267 nM.

Consider `C[C@H](NC(=O)c1ccno1)c1ccc(OC2CCN(c3cccc(C(F)(F)F)n3)C2)cc1` (some centres unmarked) [Example 2.52], for which the IC50 is 275 nM. The IC50 values of the last two compounds are within 1.5-fold of each other.

`C[C@H](NC(=O)c1cncs1)c1ccc(OC2CCN(c3ccc(OCC4CC4(F)F)cn3)C2)cc1` (some centres unmarked) [Example 2.59] registered an IC50 of 55 nM.

In turn, `CCCNc1nccc(N2CC[C@@H](Oc3ccc([C@H](C)NC(C)=O)cc3)C2)c1F` [Example 1.107] yielded an IC50 of 52 nM.

In turn, `CC(=O)N[C@@H](C)c1ccc(O[C@@H]2CCN(c3ccnc(OCCc4ccccc4)c3)C2)cc1` [Example 9.12] returned an IC50 of 534 nM.

Compound `COc1c(N2CC[C@@H](Oc3ccc([C@H](C)NC(C)=O)cc3)C2)ccnc1OCC(F)F` [Example 14.1, N—((S)-1-(4-((R)-1-(2-(2,2-Difluoroethoxy)-3-methoxypyridin-4-yl)pyrrolidin-3-yloxy)phenyl)ethyl)acetamide] showed an IC50 of 58 nM.

Turning to `COC(=O)N[C@@H](C)c1ccc(OC2CCN(c3ccnc(OCC4CC4)c3)C2)cc1` (some centres unmarked) [Example 4.4], 70 nM corresponded to half-maximal inhibition (IC50). This IC50 and that of the compound before are within 1.5-fold of each other.

For the compound `CCOc1cnc(N2CCC(Oc3ccc([C@H](C)NC(C)=O)cc3)C2)c(F)c1` (some centres unmarked) [Example 1.9], the IC50 came to 556 nM.

Consider `CCCOc1ccc(N2CCC(Oc3ccc([C@H](C)NC(C)=O)cc3)C2)c(C#N)n1` (some centres unmarked) [Example 1.13], for which the IC50 amounted to 345 nM.

In the case of `C[C@H](NC(=O)C(F)F)c1ccc(OC2CCN(c3ccc(OCC4CC4(F)F)cn3)C2)cc1` (some centres unmarked) [Example 2.60], the IC50 was 35 nM.

`COCCN(C)c1nccc(N2CC[C@@H](Oc3ccc([C@H](C)NC(C)=O)cc3)C2)c1F` [Example 1.106] registered an IC50 of 69 nM.

The compound `C[C@H](NC(=O)N(C)C)c1ccc(OC2CCN(c3ccnc(OCC(F)F)c3)C2)cc1` (some centres unmarked) [Example 3.17] showed an IC50 of 138 nM. Against the preceding compound, the IC50 is about 2-fold higher.

In the case of `CC(=O)N[C@@H](C)c1ccc(O[C@@H]2CCN(c3ccnc(NC4CCCC4)c3F)C2)cc1` [Example 1.113], it took 163 nM to reach half-maximal inhibition (IC50).

Take `CC(=O)N[C@@H](C)c1ccc(OC2CCN(c3ccnc(OC(C)C)c3)C2)cc1` (some centres unmarked) [Example 1.3]: inhibition was half-maximal at 134 nM (IC50).

In turn, `CC(C)Oc1cc(N2CCC(Oc3ccc([C@H](C)NC(=O)C4CCC4)cc3)C2)ccn1` (some centres unmarked) [Example 2.25] returned an IC50 of 564 nM.

The compound `CC(=O)N[C@@H](C)c1ccc(O[C@@H]2CCN(c3ccnc(OCC(C)(C)O)c3)C2)cc1` [Example 9.32] gave an IC50 of 305 nM.

On to `COC(=O)N[C@@H](C)c1ccc(OC2CCN(c3cccc(C(F)(F)F)n3)C2)cc1` (some centres unmarked) [Example 4.2], for which the IC50 turned out to be 139 nM.

Compound `COc1c(N2CC[C@@H](Oc3ccc([C@H](C)NC(C)=O)cc3)C2)ccnc1OCC1CC1` [Example 1.127] displayed an IC50 of 31 nM.

The compound `CC(=O)N[C@@H](C)c1ccc(O[C@@H]2CCN(c3cc(N4CCOCC4)ncc3F)C2)cc1` [Example 10.22] came in with an IC50 of 552 nM. This IC50 lies about 18-fold higher than the previous one.

The compound `CC(=O)Nc1nc(C)c(C(=O)N[C@@H](C)c2ccc(OC3CCN(c4ccc(OC[C@H]5CC5(F)F)cn4)C3)cc2)s1` (some centres unmarked) [Example 2.90] registered an IC50 of 9 nM. Against the preceding compound, the IC50 is about 61-fold lower.

On to `CC(=O)N[C@@H](C)c1ccc(O[C@@H]2CCN(c3ccnc(OC4CCCCC4)c3)C2)cc1` [Example 9.7], for which the IC50 worked out at 40 nM. This IC50 is about 4.4-fold higher than that of the compound before.

For the compound `CC(=O)N[C@@H](C)c1ccc(OC2CCN(c3ccc(OCCC(F)F)cn3)C2)cc1` (some centres unmarked) [Example 1.93], the concentration for half-maximal inhibition (IC50) amounted to 107 nM.

Compound `CC(=O)N[C@@H](C)c1ccc(O[C@@H]2CCN(c3ccnc(N4CCC4)c3F)C2)cc1` [Example 1.101] had an IC50 of 92 nM.

Take `CCC(C)Oc1cc(N2CC[C@@H](Oc3ccc([C@H](C)NC(C)=O)cc3)C2)ccn1` (some centres unmarked) [Example 9.4]: the IC50 came out at 75 nM. This IC50 and that of the compound before are within 1.5-fold of each other.

`C[C@H](NC(=O)C1CC1)c1ccc(O[C@@H]2CCN(c3ccnc(OCC4CC4(F)F)c3)C2)cc1` (some centres unmarked) [Example 9.40] had an IC50 of 326 nM. This IC50 is about 4.3-fold higher than that of the compound before.

In turn, `Cc1cc(CC(=O)N[C@@H](C)c2ccc(OC3CCN(c4ccnc(OC(C)C)c4)C3)cc2)on1` (some centres unmarked) [Example 2.31] showed an IC50 of 964 nM. This IC50 lies about 3-fold higher than the previous one.

Consider `CC(=O)N[C@@H](C)c1ccc(O[C@@H]2CCN(c3ccnc(N4CCC(F)(F)C4)c3C)C2)cc1` [Example 1.124], for which the IC50 is 76 nM.

In turn, `CCOc1cnc(N2CCC(Oc3ccc([C@H](C)NC(C)=O)cc3)C2)c(C)c1` (some centres unmarked) [Example 1.52] showed an IC50 of 474 nM.

Turning to `C[C@H](NC(=O)C(F)(F)F)c1ccc(OC2CCN(c3ccnc(OCC(F)F)c3)C2)cc1` (some centres unmarked) [Example 2.113], the IC50 was 77 nM.

`CC(=O)N[C@@H](C)c1ccc(O[C@@H]2CCN(c3ccnc(OCC4CC4(F)F)c3F)C2)cc1` (some centres unmarked) [Example 9.62] registered an IC50 of 44 nM.

Compound `CC(C)Oc1cc(N2CCC(Oc3ccc([C@H](C)NC(=O)C(F)F)cc3)C2)ccn1` (some centres unmarked) [Example 2.19] came in with an IC50 of 250 nM.

As to `COc1c(N2CC[C@@H](Oc3ccc([C@H](C)NC(C)=O)cc3)C2)ccnc1N1CCC(F)(F)C1` [Example 1.146], the midpoint of inhibition, the IC50, lay at 109 nM.

Take `CC(=O)N[C@@H](C)c1ccc(O[C@@H]2CCN(c3ccc(OCC4CC(F)(F)C4)cn3)C2)cc1` [Example 1.123]: inhibition was half-maximal at 228 nM (IC50).

Compound `CC(=O)N[C@@H](C)c1ccc(O[C@@H]2CCN(c3ccnc(OCC(C)(F)F)c3F)C2)cc1` [Example 9.85] registered an IC50 of 58 nM.

On to `CC[C@H](C)Oc1cc(N2CC[C@@H](Oc3ccc([C@H](C)NC(C)=O)cc3)C2)ccn1` [Example 9.27], for which the IC50 is 55 nM.

With `CC(=O)Nc1nc(C)c(C(=O)N[C@@H](C)c2ccc(O[C@@H]3CCN(c4ccc(OCC5CC5(F)F)cn4)C3)cc2)s1` (stereo partly drawn) [Example 2.1, 2-Acetamido-N—((1S)-1-(4-((3R)-1-(5-((2,2-difluorocyclopropyl)methoxy)pyridin-2-yl)pyrrolidin-3-yloxy)phenyl)ethyl)-4-methylthiazole-5-carboxamide], the IC50 came out at 25 nM.

In turn, `C[C@H](NC(=O)CO)c1ccc(OC2CCN(c3ccnc(OCC4CC4)c3)C2)cc1` (some centres unmarked) [Example 2.72] registered an IC50 of 130 nM.

Turning to `C[C@H](NC(=O)C(F)F)c1ccc(OC2CCN(c3ccnc(OCC(F)F)c3)C2)cc1` (some centres unmarked) [Example 2.97], the IC50 worked out at 140 nM.

`CC(=O)N[C@@H](C)c1ccc(OC2CCN(c3cc(OCC4CC4(F)F)ncc3C)C2)cc1` (some centres unmarked) [Example 1.89] registered an IC50 of 278 nM.

`C[C@H](NC(=O)N1CCOCC1)c1ccc(OC2CCN(c3ccnc(OCC4CC4)c3)C2)cc1` (some centres unmarked) [Example 3.12] gave an IC50 of 144 nM. Against the preceding compound, the IC50 is about 1.9-fold lower.

`Cc1oncc1C(=O)N[C@@H](C)c1ccc(OC2CCN(c3ccnc(OC(C)C)c3)C2)cc1` (some centres unmarked) [Example 2.58] yielded an IC50 of 69 nM.

Take `CCOc1ccc(N2CCC(Oc3ccc([C@H](C)NC(C)=O)cc3)C2)nc1` (some centres unmarked) [Example 1.6]: 306 nM corresponded to half-maximal inhibition (IC50).

`CC(=O)N[C@@H](C)c1ccc(O[C@@H]2CCN(c3cccc(N(C)C4CCOCC4)n3)C2)cc1` [Example 10.39] displayed an IC50 of 360 nM. The IC50 values of the last two compounds are within 1.5-fold of each other.

On to `C[C@H](NC(=O)c1cc[nH]n1)c1ccc(OC2CCN(c3cccc(C(F)(F)F)n3)C2)cc1` (some centres unmarked) [Example 2.64], for which 45 nM corresponded to half-maximal inhibition (IC50).

On to `CC(=O)N[C@@H](C)c1ccc(OC2CCN(c3ccnc(OCC4CC4)c3)C2)cc1` (some centres unmarked) [Example 1.35], for which it took 414 nM to reach half-maximal inhibition (IC50).

Compound `CC(=O)N[C@@H](C)c1ccc(O[C@@H]2CCN(c3ccnc(N4CCC5(CC5)C4)c3F)C2)cc1` [Example 1.104] came in with an IC50 of 24 nM.

Take `CCOc1nccc(N2CC[C@@H](Oc3ccc([C@H](C)NC(C)=O)cc3)C2)c1OC` [Example 1.95]: the IC50 amounted to 82 nM.

With `COc1cc(N2CC[C@@H](Oc3ccc([C@H](C)NC(C)=O)cc3)C2)cnc1OCC1CC1` [Example 1.122], the midpoint of inhibition, the IC50, lay at 2710 nM.

Consider `CCC(=O)Nc1nc(C)c(C(=O)N[C@@H](C)c2ccc(O[C@@H]3CCN(c4ccnc(OCC5CC5)c4Cl)C3)cc2)s1` [Example 9.73], for which the IC50 was found to be 45 nM.

Turning to `C[C@H](NC(=O)c1ccon1)c1ccc(OC2CCN(c3ccnc(OCC4CC4)c3)C2)cc1` (some centres unmarked) [Example 2.70], the IC50 came to 99 nM.

Consider `CCC(=O)Nc1nc(C)c(C(=O)N[C@@H](C)c2ccc(O[C@@H]3CCN(c4ccc(OC[C@@H]5CC5(F)F)cn4)C3)cc2)s1` [Example 1.145], for which the IC50 is 995 nM.

In the case of `CCCOc1nccc(N2CC[C@@H](Oc3ccc([C@H](C)NC(C)=O)cc3)C2)c1Cl` [Example 9.78], half-maximal inhibition (IC50) was put at 57 nM.

Turning to `CCCOc1cnc(N2CC[C@@H](Oc3ccc([C@H](C)NC(=O)c4sc(NC(C)=O)nc4C)cc3)C2)c(F)c1` [Example 1.48], the IC50 is 352 nM.

Take `CC(=O)N[C@@H](C)c1ccc(OC2CCN(c3ccc(OCC4CC4)nc3)C2)cc1` (some centres unmarked) [Example 1.14]: half-maximal inhibition (IC50) required 394 nM.

Source of the values: patent US8877741B2, “Pyrrolidine derivatives, pharmaceutical compositions and uses thereof” (Boehringer Ingelheim International GmbH, priority 2013, dated 2014).
